Measured values as given in ChEMBL document CHEMBL1201862, “PubChem BioAssay data set” (2004).
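All cell lines were grown in 96-well plates and treated with compound for 48 hours. At the GI50, growth is halved.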 Active and inactive are the calls of the source. No stated cut-off is given here; in the data, active = GI50 up to about 1.1 µM and inactive = higher.

Tests used:
Assay in all cases: NCI anticancer screen, dose series, 48 h
786-0 = system: 786-0
A498 = system: A498
BT-549 = system: BT-549
CAKI-1 = system: CAKI-1
EKVX = system: EKVX
HCT-15 = system: HCT-15
HL-60 = system: HL-60
HOP-62 = system: HOP-62
HOP-92 = system: HOP-92
Hs-578T = system: Hs-578T
K562 = system: K562
OVCAR-4 = system: OVCAR-4
PC-3 = system: PC-3
SF-268 = system: SF-268
SF-295 = system: SF-295
UACC-257 = system: UACC-257
UACC-62 = system: UACC-62
UO-31 = system: UO-31
NCI-H23 = system: NCI-H23

Compound	GI50 (786-0)	GI50 (A498)	GI50 (BT-549)	GI50 (CAKI-1)	GI50 (EKVX)	GI50 (HCT-15)	GI50 (HL-60)	GI50 (HOP-62)	GI50 (HOP-92)	GI50 (Hs-578T)	GI50 (K562)	GI50 (OVCAR-4)	GI50 (PC-3)	GI50 (SF-268)	GI50 (SF-295)	GI50 (UACC-257)	GI50 (UACC-62)	GI50 (UO-31)	GI50 (NCI-H23)
Cc1cc(Cc2c(C)c(C)c(Cc3cc(C)cc(C(C)(C)C)c3O)c(C)c2C)c(O)c(C(C)(C)C)c1	> 100 µM (inactive)	> 100 µM (inactive)	> 100 µM (inactive)	> 100 µM (inactive)	> 100 µM (inactive)	> 100 µM	14.4 µM (inactive)	> 100 µM (inactive)	> 100 µM (inactive)	> 100 µM (inactive)	> 100 µM (inactive)	> 100 µM (inactive)	> 100 µM (inactive)	> 100 µM (inactive)	> 100 µM (inactive)	> 100 µM (inactive)	> 100 µM (inactive)	> 100 µM (inactive)	–
CO/C(=N\N=C(/c1ccccc1)C(F)(F)F)c1ccncc1	–	87.5 µM (inactive)	31.8 µM (inactive)	45 µM (inactive)	–	27.5 µM	> 100 µM (inactive)	46.6 µM (inactive)	53.2 µM (inactive)	49.2 µM (inactive)	6.44 µM (inactive)	80.7 µM (inactive)	26.1 µM (inactive)	–	48.6 µM (inactive)	–	27.5 µM (inactive)	38.6 µM (inactive)	36.2 µM (inactive)
COC(=O)CCc1cc(OC)c(O)c(C(Cc2ccc(OC)c(OC)c2)C(=O)OC)c1 (centres undefined)	> 100 µM (inactive)	> 100 µM (inactive)	> 100 µM (inactive)	–	> 100 µM (inactive)	> 100 µM	> 100 µM (inactive)	> 100 µM (inactive)	> 100 µM (inactive)	> 100 µM (inactive)	> 100 µM (inactive)	> 100 µM (inactive)	> 100 µM (inactive)	> 100 µM (inactive)	> 100 µM (inactive)	> 100 µM (inactive)	> 100 µM (inactive)	> 100 µM (inactive)	> 100 µM (inactive)
CO/C=C(/C(=O)OC)c1ccccc1[C@H]1C[C@@H]1c1ccc(OC)cc1	34 µM (inactive)	28.1 µM (inactive)	17.7 µM (inactive)	17.9 µM (inactive)	14.3 µM (inactive)	19.2 µM	25.2 µM (inactive)	33.9 µM (inactive)	9.33 µM (inactive)	25.9 µM (inactive)	15.8 µM (inactive)	8.05 µM (inactive)	22.1 µM (inactive)	25.1 µM (inactive)	17.2 µM (inactive)	25.8 µM (inactive)	23.1 µM (inactive)	26.4 µM (inactive)	27.9 µM (inactive)
CCSc1c2cc(OC)ccc2nc2ccc(OC)cc12	16 µM (inactive)	9.4 µM (inactive)	23.7 µM (inactive)	9.27 µM (inactive)	9.84 µM (inactive)	8.34 µM	2.62 µM (inactive)	19.1 µM (inactive)	> 60.8 µM (inactive)	> 100 µM (inactive)	5.74 µM (inactive)	11.7 µM (inactive)	10.7 µM (inactive)	10.9 µM (inactive)	22.4 µM (inactive)	9.98 µM (inactive)	10.9 µM (inactive)	12.6 µM (inactive)	9.44 µM (inactive)
O=C1Oc2ccccc2C(=O)/C1=C1/C=C(c2ccccc2)SS1	> 100 µM (inactive)	> 100 µM (inactive)	> 100 µM (inactive)	49.2 µM (inactive)	> 100 µM (inactive)	40 µM	21.9 µM (inactive)	> 100 µM (inactive)	15.6 µM (inactive)	> 100 µM (inactive)	42.5 µM (inactive)	91 µM (inactive)	> 100 µM (inactive)	86.7 µM (inactive)	> 100 µM (inactive)	> 100 µM (inactive)	82.8 µM (inactive)	> 100 µM (inactive)	> 100 µM (inactive)
O=C(CC(=O)N1N=C(N2CCCCC2)CC1c1ccccc1)Nc1ccc(Cl)cc1 (centres undefined)	> 100 µM (inactive)	> 100 µM (inactive)	> 100 µM (inactive)	> 100 µM (inactive)	> 100 µM (inactive)	> 100 µM	> 100 µM (inactive)	> 100 µM (inactive)	> 100 µM (inactive)	> 100 µM (inactive)	–	> 100 µM (inactive)	> 100 µM (inactive)	> 100 µM (inactive)	> 100 µM (inactive)	> 100 µM (inactive)	> 100 µM (inactive)	> 100 µM (inactive)	> 100 µM (inactive)
COc1cc2c(cc1OC)CC1c3cc(OC)c(OC)cc3CCN1CC2 (centres undefined)	> 100 µM (inactive)	> 100 µM (inactive)	> 100 µM (inactive)	> 100 µM (inactive)	> 100 µM (inactive)	> 100 µM	10.6 µM (inactive)	> 100 µM (inactive)	69.3 µM (inactive)	22.9 µM (inactive)	89.7 µM (inactive)	> 100 µM (inactive)	> 100 µM (inactive)	42.1 µM (inactive)	95.1 µM (inactive)	> 100 µM (inactive)	67 µM (inactive)	0.199 µM (active)	0.101 µM (active)
CCC1CCN/C(=N/S(=O)(=O)c2cc(C)c(Cl)cc2S)N1 (centres undefined)	33.5 µM (inactive)	> 100 µM (inactive)	17.7 µM (inactive)	30 µM (inactive)	32.5 µM (inactive)	38.5 µM	30.8 µM (inactive)	24.3 µM (inactive)	50.9 µM (inactive)	28.4 µM (inactive)	32.4 µM (inactive)	24.3 µM (inactive)	50.2 µM (inactive)	57 µM (inactive)	–	42.9 µM (inactive)	14 µM (inactive)	36.3 µM (inactive)	–
CCC(C#N)NCc1cccc(CNC(C#N)CC)c1 (centres undefined)	> 100 µM (inactive)	> 100 µM (inactive)	> 100 µM (inactive)	> 100 µM (inactive)	> 100 µM (inactive)	> 100 µM	> 100 µM (inactive)	–	> 100 µM (inactive)	98.9 µM (inactive)	> 100 µM (inactive)	> 100 µM (inactive)	> 100 µM (inactive)	> 100 µM (inactive)	19.5 µM (inactive)	> 100 µM (inactive)	> 100 µM (inactive)	> 100 µM (inactive)	> 100 µM (inactive)
CCOC(=O)c1sc2nc(SC)nc3c2c1NC(=O)CN3c1ccc(F)cc1	–	47.6 µM (inactive)	19.5 µM (inactive)	> 100 µM (inactive)	47.4 µM (inactive)	–	98.6 µM (inactive)	15.7 µM (inactive)	31.8 µM (inactive)	27.1 µM (inactive)	77.6 µM (inactive)	21.4 µM (inactive)	16.6 µM (inactive)	20 µM (inactive)	20.1 µM (inactive)	68.7 µM (inactive)	47 µM (inactive)	18 µM (inactive)	50.6 µM (inactive)
NCCN1C(=O)c2ccccc2C1c1ccc(Cl)cc1 (centres undefined)	> 100 µM (inactive)	> 100 µM (inactive)	> 100 µM (inactive)	> 100 µM (inactive)	> 100 µM (inactive)	> 100 µM	> 100 µM (inactive)	> 100 µM (inactive)	> 100 µM (inactive)	> 100 µM (inactive)	> 100 µM (inactive)	> 100 µM (inactive)	92.3 µM (inactive)	> 100 µM (inactive)	> 100 µM (inactive)	> 100 µM (inactive)	> 100 µM (inactive)	> 100 µM (inactive)	> 100 µM (inactive)
Clc1ccc(C2ON=C(c3ccccc3)N2C23CC4CC(CC(C4)C2)C3)cc1 (centres undefined)	> 10 µM (inactive)	> 10 µM (inactive)	> 10 µM (inactive)	> 10 µM (inactive)	> 10 µM (inactive)	> 10 µM	> 10 µM (inactive)	> 10 µM (inactive)	> 10 µM (inactive)	> 10 µM (inactive)	> 10 µM (inactive)	> 10 µM (inactive)	> 10 µM (inactive)	> 10 µM (inactive)	> 10 µM (inactive)	> 10 µM (inactive)	> 10 µM (inactive)	–	> 10 µM (inactive)
C=C(C)C(=O)OC1C(C(C)CCCO)=C(CO)CC2OC(=O)C(=C)C21 (centres undefined)	4.13 µM (inactive)	17.1 µM (inactive)	14 µM (inactive)	17.1 µM (inactive)	24.6 µM (inactive)	13.3 µM	6.41 µM (inactive)	26.5 µM (inactive)	16.7 µM (inactive)	16.8 µM (inactive)	15.2 µM (inactive)	28.1 µM (inactive)	24.4 µM (inactive)	17.1 µM (inactive)	47.2 µM (inactive)	17.1 µM (inactive)	14.9 µM (inactive)	–	19.3 µM (inactive)
CN(Cc1cnc2nc(N)nc(N)c2n1)c1ccc(C(=O)NC(CCC(=O)NCCC(P(=O)(O)O)P(=O)(O)O)C(=O)O)cc1 (centres undefined)	6.11 µM (inactive)	78 µM (inactive)	> 100 µM (inactive)	> 25 µM (inactive)	69.5 µM (inactive)	6.67 µM	4.12 µM (inactive)	52.6 µM (inactive)	> 100 µM (inactive)	> 100 µM (inactive)	1.47 µM (inactive)	> 100 µM (inactive)	1.79 µM (inactive)	14.2 µM (inactive)	18.7 µM (inactive)	> 100 µM (inactive)	28.4 µM (inactive)	22 µM (inactive)	24.5 µM (inactive)
Cc1occc1/C(S)=N\c1ccc(Cl)c(COC(C)(C)C)c1	16.3 µM (inactive)	17.8 µM (inactive)	17.6 µM (inactive)	17.8 µM (inactive)	16.3 µM (inactive)	17.2 µM	19.4 µM (inactive)	18.3 µM (inactive)	15.7 µM (inactive)	20.2 µM (inactive)	–	15.3 µM (inactive)	14.5 µM (inactive)	17.9 µM (inactive)	14.8 µM (inactive)	15.7 µM (inactive)	14.6 µM (inactive)	13.1 µM (inactive)	16.4 µM (inactive)
